Test results as given in patent US20260042764A1, “COMPOSITIONS AND METHODS FOR INHIBITION OF KRAS” (TheRas, Inc., priority 2022, published 2026).

Legend:
GP2d cells (KRAS G12D) = test: Cell-based pERK HTRF assay in GP2d cell (Biological Example 2); conditions: GP2d, GP2d (KRAS G12D) cells, pERK HTRF
Experimental: A pERK assay (Perkin Elmer) was used to determine the effectiveness of compounds in disrupting KRAS G12D protein/effector signaling in cells.
On Day 1, cells (GP2d) were seeded into 96-well plates at 3×10^4 cells/well in 80 μL complete growth media (DMEM, 10% FBS).
On Day 2, cells were treated with compounds at 0.25% DMSO. The source plate was created with compounds diluted in media at 5-fold the final assay concentration. The compounds were run in a 9-point concentration curve starting at 1 μM or in a 9-point concentration curve starting at 100 nM, with a half-log dilution between concentrations. Twenty μL was transferred onto the cell plates (final volume in wells was 100 μL). Plates were harvested after 60 min incubation by aspirating media and adding kit-supplied 1x supplemented lysis buffer to all wells (50 μL per well). Plates were then placed on a plate shaker and incubated at 850 rpm for an additional 30 min.
Antibody mixture solution was prepared by diluting aliquoted d2 and Eu Cryptate antibodies 1:20 in kit supplied detection buffer, and mixing the diluted antibodies solutions (1:1 v:v).
Samples were homogenized by pipetting up and down and then transferred (16 μL of cell lysates) from the 96-well cell culture plate to two wells of the HTRF 384-well detection plate containing the antibody solution. Plates were centrifuged (524 g for 1 min) and allowed to incubate between 4 and 24 h at room temperature. Maximum signal is reached after 4 h incubation time and remains stable over a period of 24 hours. Therefore, readings can be made between 4 and 24 h of incubation. Plates were centrifuged again (524 g for Imin), then analyzed on the EnVision plate reader using the following settings: Excitation 320 nm, Bandwidth 75 nm; Emission 615 nm, Bandwidth 85 nm; Gain 100%; Flashes 100; Lag 60 μs.

[1] = biological target: T1, Avi-KRAS G12R (1-169) GppNHp/RAF1 RBD-3xFLAG (52-151) (Homo sapiens, UniProt P01116, G12R); test: Raf1-KRAS G12R-GppNHP disruption HTRF assay (Biological Example 1); format: binding; conditions: KRAS G12R, GppNHp-loaded; Table 11
T1 construct: Avi-KRAS G12R (1-169)
T1 sequence (P01116 1-169 isoform P01116-2 G12R): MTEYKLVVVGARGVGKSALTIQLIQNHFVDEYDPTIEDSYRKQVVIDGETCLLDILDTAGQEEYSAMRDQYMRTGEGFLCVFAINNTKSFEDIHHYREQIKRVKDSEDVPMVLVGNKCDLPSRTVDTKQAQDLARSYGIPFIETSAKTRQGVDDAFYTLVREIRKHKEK
Experimental: (§1) A protein:protein interaction (PPI) Homogeneous Time Resolved Fluorescence (HTRF) assay was used to determine the effectiveness of compounds of the present disclosure in disrupting KRAS protein and effector RAF1 binding.
(§2) The assay buffer included: 50 mM Tris pH 7.5, 100 mM NaCl, 5 mM MgCl2, 0.1% BSA, 0.01% Tween, and 10% DMSO. The bead buffer included: 50 mM Tris pH 7.5, and 0.01% Tween 20. Assay volume of 20 μL was used in a 384 well plate-low volume format.
(§3) The HTRF assay employed the following protocol:
(§4) Protein mix was prepared in assay buffer, and dispensed on plates, 10 μL per well, then incubated for 1 h at room temperature, with 700 rpm shaking, Reagents mix was prepared and dispensed on plates, 10 μL per well, then incubated for 1 h at room temperature, with 700 rpm shaking.
(§5) Data was reported as percentage of activity, with DMSO as 100%. Data was plotted and analyzed using Prism 8.

[2] = biological target: T2, Avi-KRAS G12D (1-169) GppNHp/RAF1 RBD-3xFLAG (52-151) (Homo sapiens, UniProt P01116, G12D); test: Raf1-KRAS G12D-GppNHP disruption HTRF assay (Biological Example 1); format: binding; conditions: KRAS G12D, GppNHp-loaded; Table 11
T2 construct: Avi-KRAS G12D (1-169)
T2 sequence (P01116 1-169 isoform P01116-2 G12D): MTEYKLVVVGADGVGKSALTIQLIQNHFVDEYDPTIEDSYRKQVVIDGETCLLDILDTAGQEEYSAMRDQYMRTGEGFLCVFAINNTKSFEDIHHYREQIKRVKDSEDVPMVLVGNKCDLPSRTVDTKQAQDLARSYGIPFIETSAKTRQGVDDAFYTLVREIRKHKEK
Experimental: as §1, §2, §3, §4, §5

[3] = biological target: T3, Avi-KRAS WT (1-169) GppNHp/RAF1 RBD-3xFLAG (52-151) (Homo sapiens, UniProt P01116); test: Raf1-KRAS WT-GppNHP disruption HTRF assay (Biological Example 1); format: binding; conditions: KRAS WT, GppNHp-loaded; Table 11
T3 construct: Avi-KRAS WT (1-169)
T3 sequence (P01116 1-169 isoform P01116-2): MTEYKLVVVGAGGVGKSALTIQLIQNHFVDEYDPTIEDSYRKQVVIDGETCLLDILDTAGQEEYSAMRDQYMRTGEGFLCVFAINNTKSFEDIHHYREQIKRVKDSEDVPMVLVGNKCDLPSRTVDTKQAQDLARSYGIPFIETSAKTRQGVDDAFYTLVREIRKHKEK
Experimental: as §1, §2, §3, §4, §5

[4] = biological target: T4, Avi-KRAS G12V (1-169) GppNHp/RAF1 RBD-3xFLAG (52-151) (Homo sapiens, UniProt P01116, G12V); test: Raf1-KRAS G12V-GppNHP disruption HTRF assay (Biological Example 1); format: binding; conditions: KRAS G12V, GppNHp-loaded; Table 11
T4 construct: Avi-KRAS G12V (1-169)
T4 sequence (P01116 1-169 isoform P01116-2 G12V): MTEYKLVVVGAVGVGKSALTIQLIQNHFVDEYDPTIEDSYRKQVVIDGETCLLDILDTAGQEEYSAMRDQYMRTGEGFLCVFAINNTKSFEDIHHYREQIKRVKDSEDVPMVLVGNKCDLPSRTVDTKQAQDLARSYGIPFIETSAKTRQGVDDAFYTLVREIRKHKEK
Experimental: as §1, §2, §3, §4, §5

Row | Compound | IC50 (GP2d cells (KRAS G12D)) | IC50 [1] | IC50 [2] | IC50 [3] | IC50 [4]
1 | CC(=O)N1CCN(c2nc(OC[C@@]34CCCN3C[C@H](F)C4)nc3c(F)c(-c4ccc(F)c5sc(N)c(C#N)c45)c(C(F)(F)F)cc23)C[C@@H]1CC#N [Compound 183] | 100 to 1000 nM | 1000 to 10000 nM | 1000 to 10000 nM | 1000 to 10000 nM | 1000 to 10000 nM
2 | N#Cc1c(N)sc2c(F)ccc(-c3c(C(F)(F)F)cc4c(N5CCC(O)CC5)nc(OC[C@@]56CCCN5C[C@H](F)C6)nc4c3F)c12 [Compound 127] | < 100 nM | 100 to 1000 nM | 100 to 1000 nM | 100 to 1000 nM | 100 to 1000 nM
3 | C[C@@H]1COCCN1c1nc(OC[C@@]23CCCN2C[C@H](F)C3)nc2c(F)c(-c3ccc(F)c4sc(N)c(C#N)c34)c(C(F)(F)F)cc12 [Compound 134] | < 100 nM | 100 to 1000 nM | 100 to 1000 nM | 100 to 1000 nM | 1000 to 10000 nM
4 | N#Cc1c(N)sc2c(F)ccc(-c3c(C(F)(F)F)cc4c(N5CCOCC5)nc(OC[C@@]56CCCN5C[C@H](F)C6)nc4c3F)c12 [Compound 90] | < 100 nM | 100 to 1000 nM | 100 to 1000 nM | 100 to 1000 nM | 100 to 1000 nM
5 | CC(=O)N1CCC(N(C)c2nc(OC[C@@]34CCCN3C[C@H](F)C4)nc3c(F)c(-c4ccc(F)c5sc(N)c(C#N)c45)c(C(F)(F)F)cc23)[C@H]1C (stereo partly shown) [Compound 114] | < 100 nM | 100 to 1000 nM | 100 to 1000 nM | 100 to 1000 nM | 100 to 1000 nM
6 | C[C@H](O)CN(C)c1nc(OC[C@@]23CCCN2C[C@H](F)C3)nc2c(F)c(-c3ccc(F)c4sc(N)c(C#N)c34)c(C(F)(F)F)cc12 [Compound 72] | < 100 nM | 100 to 1000 nM | < 100 nM | 100 to 1000 nM | 100 to 1000 nM
7 | CN1CCC[C@H]1COc1nc(N(C)[C@H]2C[C@@H](O)C2)c2cc(C(F)(F)F)c(-c3ccc(F)c4sc(N)c(C#N)c34)c(F)c2n1 [Compound 35] | < 100 nM | 100 to 1000 nM | 100 to 1000 nM | 100 to 1000 nM | 100 to 1000 nM
8 | CN(c1nc(OC[C@@]23CCCN2C[C@H](F)C3)nc2c(F)c(-c3ccc(F)c4sc(N)c(C#N)c34)c(C(F)(F)F)cc12)[C@@H]1CCC[C@H]1CO [Compound 87] | > 1000 nM | > 10000 nM | > 10000 nM | > 10000 nM | > 10000 nM
9 | CN(c1nc(OC[C@@]23CCCN2C[C@H](F)C3)nc2c(F)c(-c3ccc(F)c4sc(N)c(C#N)c34)c(C(F)(F)F)cc12)[C@@H]1C[C@H](O)[C@H]1CC#N [Compound 182] | < 100 nM | 100 to 1000 nM | 100 to 1000 nM | 100 to 1000 nM | 100 to 1000 nM
10 | CN(c1nc(OCC23CCCN2CCC3)nc2c(F)c(-c3ccc(F)c4sc(N)c(C#N)c34)c(C(F)(F)F)cc12)[C@H]1C[C@@H](O)C1 [Compound 25] | < 100 nM | < 100 nM | < 100 nM | < 100 nM | < 100 nM
11 | CCN(CCO)c1nc(OC[C@@H]2CC3(CC3)CN2C)nc2c(F)c(-c3ccc(F)c4sc(N)c(C#N)c34)c(C(F)(F)F)cc12 [Compound 180] | < 100 nM | 100 to 1000 nM | 100 to 1000 nM | 100 to 1000 nM | 100 to 1000 nM
12 | CC(=O)N1CCN(c2nc(OC[C@@]34CCCN3C[C@H](F)C4)nc3c(F)c(-c4ccc(F)c5sc(N)c(C#N)c45)c(C(F)(F)F)cc23)CC1 [Compound 100] | < 100 nM | 100 to 1000 nM | 100 to 1000 nM | 100 to 1000 nM | 1000 to 10000 nM
13 | N#Cc1c(N)sc2c(F)ccc(-c3c(C(F)(F)F)cc4c(N5CCN(C(=O)CO)CC5)nc(OC[C@@]56CCCN5C[C@H](F)C6)nc4c3F)c12 [Compound 101] | < 100 nM | 100 to 1000 nM | 100 to 1000 nM | 100 to 1000 nM | 1000 to 10000 nM
14 | C[C@H]1COCCN1c1nc(OC[C@@]23CCCN2C[C@H](F)C3)nc2c(F)c(-c3ccc(F)c4sc(N)c(C#N)c34)c(C(F)(F)F)cc12 [Compound 135] | < 100 nM | 100 to 1000 nM | < 100 nM | 100 to 1000 nM | 100 to 1000 nM
15 | CN(CCO)c1nc(OC[C@@]23CCCN2C[C@H](F)C3)nc2c(F)c(-c3ccc(F)c4sc(N)c(C#N)c34)c(C(F)(F)F)cc12 [Compound 70, 2-amino-7-fluoro-4-(8-fluoro-2-(((2R,7aS)-2-fluorotetrahydro-1H-pyrrolizin-7a(5H)-yl)methoxy)-4-((2-hydroxyethyl)(methyl)amino)-6-(trifluoromethyl)quinazolin-7-yl)benzo[b]thiophene-3-carbonitrile] | < 100 nM | 100 to 1000 nM | < 100 nM | 100 to 1000 nM | 100 to 1000 nM
16 | N#Cc1c(N)sc2c(F)ccc(-c3c(C(F)(F)F)cc4c(N5CC[C@H]5CO)nc(OC[C@@]56CCCN5C[C@H](F)C6)nc4c3F)c12 [Compound 169] | < 100 nM | 100 to 1000 nM | 100 to 1000 nM | 100 to 1000 nM | 100 to 1000 nM
17 | N#Cc1c(N)sc2c(F)ccc(-c3c(C(F)(F)F)cc4c(N(CCO)C5CC5)nc(OC[C@@]56CCCN5C[C@H](F)C6)nc4c3F)c12 [Compound 171] | < 100 nM | 100 to 1000 nM | 100 to 1000 nM | 100 to 1000 nM | 100 to 1000 nM
18 | CCC(=O)N1C[C@H](C)N(c2nc(OC[C@@]34CCCN3C[C@H](F)C4)nc3c(F)c(-c4ccc(F)c5sc(N)c(C#N)c45)c(C(F)(F)F)cc23)C[C@H]1C (atropisomer, axis not shown) [Compound 99] | < 100 nM | 1000 to 10000 nM | 1000 to 10000 nM | 1000 to 10000 nM | > 10000 nM
19 | CCN(CCC#N)c1nc(OC[C@@]23CCCN2C[C@H](F)C3)nc2c(F)c(-c3ccc(F)c4sc(N)c(C#N)c34)c(C(F)(F)F)cc12 [Compound 166] | < 100 nM | 100 to 1000 nM | 100 to 1000 nM | 100 to 1000 nM | 100 to 1000 nM
20 | CC1(CO)CCN(c2nc(OCC34CCCN3CC(F)C4)nc3c(F)c(-c4ccc(F)c5sc(N)c(C#N)c45)c(C(F)(F)F)cc23)CC1 (stereo not shown) [Compound 48] | < 100 nM | 100 to 1000 nM | 100 to 1000 nM | 100 to 1000 nM | 100 to 1000 nM
21 | CN(c1nc(OC[C@@]23CCCN2C[C@H](F)C3)nc2c(F)c(-c3ccc(F)c4sc(N)c(C#N)c34)c(C(F)(F)F)cc12)[C@H]1C[C@@](C)(O)C1 [Compound 31, 2-amino-7-fluoro-4-(8-fluoro-2-(((2R,7aS)-2-fluorotetrahydro-1H-pyrrolizin-7a(5H)-yl)methoxy)-4-(((1s,3R)-3-hydroxy-3-methylcyclobutyl)(methyl)amino)-6-(trifluoromethyl)quinazolin-7-yl)benzo[b]thiophene-3-carbonitrile] | < 100 nM | 100 to 1000 nM | 100 to 1000 nM | 100 to 1000 nM | 1000 to 10000 nM
22 | CCN(c1nc(OC[C@@]23CCCN2C[C@H](F)C3)nc2c(F)c(-c3ccc(F)c4sc(N)c(C#N)c34)c(C(F)(F)F)cc12)C(C)C [Compound 154] | < 100 nM | 100 to 1000 nM | 100 to 1000 nM | 100 to 1000 nM | 100 to 1000 nM
23 | C[C@H]1CN(c2nc(OC[C@@]34CCCN3C[C@H](F)C4)nc3c(F)c(-c4ccc(F)c5sc(N)c(C#N)c45)c(C(F)(F)F)cc23)CCO1 [Compound 142] | < 100 nM | 100 to 1000 nM | 100 to 1000 nM | 100 to 1000 nM | 1000 to 10000 nM
